Measurements as given in patent US8163909B2, “Substituted hydroxyethyl amine compounds as beta-secretase modulators and methods of use” (Amgen Inc., priority 2007, dated 2012).
Read-outs that look alike come from different tables or passages of the source.

How the values were obtained:
CYP3A4 (CYP3A) = CYP3A4 (CYP3A) (Homo sapiens, UniProt P08684); experiment: in vitro; details: microsomes, pH 7.4;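 also: inhibition of CYP3A-mediated 1-hydroxymidazolam formation after 10 min incubation with NADPH, quantified by HPLC MS relative to metabolite produced without test compound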
CYP2D6 = CYP2D6 (Homo sapiens, UniProt P10635); experiment: CYP2D6 inhibition assay (bufuralol, pooled human liver microsomes)
[1] = Microsomal stability assay, rat liver microsomes;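 also: rat liver microsomes (0.25 mg/mL) with about 1 µM compound plus 1 mM NADPH, pH 7.4, 37 °C for 30 min, parent left measured by LC-MS/MS against 0 min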
[2] = Microsomal stability assay, human liver microsomes;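 also: pooled human liver microsomes at 0.25 mg/mL with 1 µM compound and NADPH at 37 °C, pH 7.4, for 30 min, unchanged parent quantified by LC-MS/MS against the 0 min sample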
[3] = tested on: Aβ40 in conditioned medium of cells stably expressing Amyloid Precursor Protein (APP); experiment: In vitro BACE cell-based assay (Aβ40 in conditioned medium, sandwich ELISA); details: Homo sapiens;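 also: compounds added as a dilution series, secreted peptide quantified by europium time-resolved fluorescence readout, potency fitted from percent of control versus compound concentration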
[4] = molecular target: Beta Secretase enzyme (BACE) (Homo sapiens, UniProt P56817); experiment: In vitro enzymatic BACE FRET (fluorescence resonance energy transfer) assay; format: biochemical;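 also: fluorescence read after 1 h with 50 nM quenched peptide substrate spanning the BACE cleavage site, in pH 4.2 acetate buffer containing 10% DMSO and nonionic detergent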
[5] = 2D6 IC50, CYP enzyme inhibition
[6] = HEK293, Table 2, HEK cells, read-out: HEK cell assay
[7] = Table 2, read-out: BACE1 FRET assay
[8] = HEK293, HEK cells, read-out: HEK cell assay (IC50)
[9] = read-out: BACE1 FRET assay (IC50)
[10] = HEK293, cell-based assay, HEK cells, IC50's in uM, read-out: HEK cell assay
[11] = BACE enzyme assay, IC50's in uM, read-out: BACE1 FRET assay
[12] = HEK293, HEK cells, read-out: HEK cell assay
[13] = 2D6 IC50 (uM), CYP enzyme inhibition
[14] = BACE enzyme assay, read-out: BACE1 FRET assay

Chain of Beta Secretase enzyme (BACE) (P56817 46-501): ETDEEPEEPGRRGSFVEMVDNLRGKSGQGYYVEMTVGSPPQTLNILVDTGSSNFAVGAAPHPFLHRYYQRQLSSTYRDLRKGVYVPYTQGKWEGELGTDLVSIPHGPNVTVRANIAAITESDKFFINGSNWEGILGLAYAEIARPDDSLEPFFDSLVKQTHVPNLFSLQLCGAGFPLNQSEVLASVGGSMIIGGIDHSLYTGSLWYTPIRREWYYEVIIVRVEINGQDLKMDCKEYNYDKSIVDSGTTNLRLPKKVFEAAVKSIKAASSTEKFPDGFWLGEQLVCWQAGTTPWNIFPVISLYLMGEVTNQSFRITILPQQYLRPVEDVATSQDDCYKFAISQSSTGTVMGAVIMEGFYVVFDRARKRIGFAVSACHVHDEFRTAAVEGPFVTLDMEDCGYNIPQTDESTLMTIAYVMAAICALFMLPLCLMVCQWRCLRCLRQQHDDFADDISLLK
Chain of CYP3A4 (CYP3A) (P08684 2-503): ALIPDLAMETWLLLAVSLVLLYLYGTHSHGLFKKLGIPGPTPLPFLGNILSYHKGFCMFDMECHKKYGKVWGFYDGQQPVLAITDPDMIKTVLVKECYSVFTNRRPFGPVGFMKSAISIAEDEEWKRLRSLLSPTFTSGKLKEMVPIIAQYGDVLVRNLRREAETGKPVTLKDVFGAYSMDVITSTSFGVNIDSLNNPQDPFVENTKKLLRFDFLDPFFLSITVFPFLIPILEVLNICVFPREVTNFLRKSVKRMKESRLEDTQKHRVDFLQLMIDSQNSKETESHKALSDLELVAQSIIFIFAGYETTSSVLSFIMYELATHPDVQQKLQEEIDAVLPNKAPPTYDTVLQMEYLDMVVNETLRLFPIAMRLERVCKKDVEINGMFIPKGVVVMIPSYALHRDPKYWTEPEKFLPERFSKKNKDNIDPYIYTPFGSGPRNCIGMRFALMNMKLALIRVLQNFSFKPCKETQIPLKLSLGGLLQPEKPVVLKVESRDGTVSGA
Chain of CYP2D6 (P10635 whole entry): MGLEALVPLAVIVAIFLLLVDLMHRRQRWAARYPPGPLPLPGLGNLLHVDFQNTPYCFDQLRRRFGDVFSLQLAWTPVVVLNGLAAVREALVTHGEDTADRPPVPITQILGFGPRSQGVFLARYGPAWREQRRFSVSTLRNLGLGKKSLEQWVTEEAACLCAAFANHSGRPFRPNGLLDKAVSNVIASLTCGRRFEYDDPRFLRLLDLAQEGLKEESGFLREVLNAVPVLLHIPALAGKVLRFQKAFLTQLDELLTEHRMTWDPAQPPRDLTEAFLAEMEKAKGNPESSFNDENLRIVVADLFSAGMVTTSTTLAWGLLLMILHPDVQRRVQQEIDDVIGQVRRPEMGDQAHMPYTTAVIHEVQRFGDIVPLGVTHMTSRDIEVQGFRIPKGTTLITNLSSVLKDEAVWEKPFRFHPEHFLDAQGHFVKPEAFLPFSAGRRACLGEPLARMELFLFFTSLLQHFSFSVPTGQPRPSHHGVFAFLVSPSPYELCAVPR

Row | SMILES | IC50 (CYP3A4 (CYP3A)) | IC50 (CYP2D6; [5]) | RLM ([1]; rat liver microsomal data) | HLM ([2]; human liver microsomal data) | IC50 [3, 8] | IC50 (CYP2D6; 2D6 IC50, CYP2D6 inhibition) | IC50 [4, 9] | RLM ([1]; rat liver microsomes) | HLM ([2]; human liver microsomes) | further results
1 | CO[C@H](C)C(=O)N[C@@H](Cc1cccc(-c2nccs2)c1)[C@H](O)CN[C@H]1CC2(CCC2)Oc2ncc([C@@H]3CC3(C)C)cc21 [compound 905] | 0.2 µM | 0.9 µM | 71 µL/min/mg | 60 µL/min/mg |  |  |  |  |  | 
2 | COCC(=O)N[C@@H](Cc1ccc(F)cc1)[C@H](O)CN[C@H]1CC2(CCC2)Oc2c1cc(CC(C)(C)C)nc2-n1ccnc1 [compound 448] | 0.1 µM | 1.8 µM | 79 µL/min/mg |  |  |  |  |  |  | IC50 [3, 6]: 0.153 µM; IC50 [4, 7]: 0.106 µM
3 | COCC(=O)N[C@@H](Cc1ccc(F)cc1)[C@H](O)CN[C@@H]1CC2(CCC2)Oc2c1cc(CC(C)(C)C)nc2-n1ccnc1 [compound 449] | 0.1 µM | 0.8 µM | 163 µL/min/mg |  |  |  |  |  |  | IC50 [3, 6]: 2.97 µM; IC50 [4, 7]: 2.9 µM
4 | COC(OC)C(=O)N[C@@H](Cc1ccc(F)cc1)[C@H](O)CN[C@H]1CC2(CCC2)Oc2ncc(CC(C)(C)C)cc21 [compound 591] | 0.6 µM |  |  |  | 0.018 µM | 10.3 µM | 0.01 µM | 375 µL/min/mg |  | 
5 | CC(=O)N[C@@H](Cc1cc(F)cc(F)c1)[C@H](O)CN[C@H]1CC2(CCC2)Oc2c1cc(CC(C)(C)C)nc2Nc1ccccc1 [compound 598] | 6.9 µM |  |  |  | 0.26 µM | ≥ 27 µM | 0.023 µM | 102 µL/min/mg |  | 
6 | CCO[C@@H](C)C(=O)N[C@@H](Cc1ccc2c(c1)OCO2)[C@H](O)CN[C@H]1CC2(CCC2)Oc2ncc(CC(C)(C)C)cc21 [compound 888] |  | 3.4 µM | 140 µL/min/mg | 29 µL/min/mg |  |  |  |  |  | IC50 [3, 10]: 1.55 µM; IC50 [4, 11]: 0.213 µM
7 | C#Cc1ccc(C[C@H](NC(=O)[C@@H](C)OC)[C@H](O)CN[C@H]2CC3(CCC3)Oc3ncc(CC(C)(C)C)cc32)cc1 [compound 884] | 0.1 µM | 3.8 µM | 55 µL/min/mg |  |  |  |  |  |  | IC50 [3, 10]: 0.097 µM; IC50 [4, 11]: 0.251 µM
8 | CC(=O)N[C@@H](Cc1cc(F)cc(F)c1)[C@H](O)CN[C@H]1CC2(CCC2)Oc2c1cc(C1CC1)cc2-n1ccnc1 [compound 705] |  |  |  |  |  |  |  | 36 µL/min/mg | 51 µL/min/mg | IC50 ([3]; HEK293, HEK cell-based assay IC50, read-out: HEK cell assay): 0.013 µM; IC50 (CYP2D6; 2D6 IC50 (uM), CYP2D6 inhibition): 0.6 µM; IC50 ([4]; BACE enzyme assay IC50, read-out: BACE1 FRET assay): 0.032 µM
9 | COCC(=O)N[C@@H](Cc1cc(F)cc(F)c1)[C@H](O)CN[C@H]1CC2(CCC2)Oc2c(-c3nccn3C)cc(CC(C)C)cc21 [compound 630] |  |  |  |  | 0.003 µM | 4 µM | 0.021 µM | 220 µL/min/mg | 37 µL/min/mg | 
10 | COCC(=O)N[C@@H](Cc1ccc2c(c1)OCO2)[C@@H](CN[C@H]1CC2(CCC2)Oc2ncc([C@H](F)C(C)(C)C)cc21)OC [compound 447] | 14 µM | 14 µM |  |  |  |  |  |  |  | IC50 [3, 6]: 3.99 µM; IC50 [4, 7]: 2.64 µM
11 | COCC(=O)N[C@@H](Cc1cccc(F)c1)[C@H](O)CN[C@H]1CC2(CCC2)Oc2c(-c3ccncc3)cc(CC(C)(C)Cl)cc21 [compound 536] | ≥ 27 µM |  |  |  |  |  |  |  |  | IC50 [3, 12]: 0.011 µM; IC50 (CYP2D6; [13]): ≥ 27 µM; IC50 [4, 14]: 0.019 µM
12 | CC(C)(C)Cc1cnc2c(c1)[C@@H](NC[C@@H](O)[C@H](Cc1cccc(C#N)c1)NC(=O)c1ncccc1F)CC1(CC(F)(F)C1)O2 [compound 473] | 0.6 µM | 2.4 µM | 775 µL/min/mg |  |  |  |  |  |  | IC50 [3, 6]: 0.063 µM; IC50 [4, 7]: 0.009 µM
13 | CO[C@H](C)C(=O)N[C@@H](Cc1cncs1)[C@H](O)CN[C@H]1CC2(CCC2)Oc2c(-c3ccncc3)cc(CC(C)(C)C)cc21 [compound 632] |  |  |  |  | 0.015 µM | 3.1 µM | 0.065 µM | 166 µL/min/mg | 57 µL/min/mg | 
14 | CC(=O)N[C@@H](Cc1cccc(F)c1)[C@H](O)CN[C@H]1CC2(CCC2)Oc2c(-c3ccncc3)cc(CC(C)(C)C)cc21 [compound 592] |  |  |  |  | 0.004 µM | 1.7 µM | 0.01 µM | 73 µL/min/mg | 14 µL/min/mg | 
15 | CCCc1cnc2c(c1)[C@@H](NC[C@H](O)[C@@H](Cc1cc(F)cc(-c3nccs3)c1)NC(=O)[C@@H](C)OC)CC1(CCC1)O2 [compound 815] | 0.2 µM |  | 276 µL/min/mg | 204 µL/min/mg |  |  |  |  |  | IC50 (CYP2D6; [13]): 0.6 µM
16 | CC1(C)C[C@H]1c1cnc2c(c1)[C@@H](NC[C@@H](O)[C@H](Cc1cccc(-c3nccs3)c1)NC(=O)[C@@H]1CCCO1)CC1(CCC1)O2 [compound 907] | 0.1 µM | 0.5 µM | 78 µL/min/mg | 77 µL/min/mg |  |  |  |  |  | 
17 | CO[C@H](C)C(=O)N[C@@H](Cc1cc(F)cc(F)c1)[C@H](O)CN[C@H]1CC2(CCC2)Oc2c(-c3cncn3C)cc(CC(C)C)cc21 [compound 622] |  |  |  |  | 0.007 µM | 6.6 µM | 0.026 µM | 161 µL/min/mg | 32 µL/min/mg | 
18 | CC(=O)N[C@@H](Cc1cccc(-n2ccnc2)c1)[C@H](O)CN[C@H]1CC2(CCC2)Oc2ccc(CC(C)(C)C)cc21 [compound 659] |  |  |  |  | 0.024 µM | 0.2 µM | 0.076 µM | 413 µL/min/mg | 706 µL/min/mg | 
19 | CO[C@H](C)C(=O)N[C@@H](Cc1cc(F)cc(F)c1)[C@H](O)CN[C@H]1CC2(CCC2)Oc2c1cc(CC(C)C)cc2-n1ccnc1 [compound 461] |  | 2.2 µM | 126 µL/min/mg | 28 µL/min/mg |  |  |  |  |  | IC50 [3, 6]: 0.028 µM; IC50 [4, 7]: 0.026 µM
20 | C#Cc1cccc(C[C@H](NC(=O)COC)[C@H](O)CN[C@H]2C[C@@]3(CCOC3)Oc3ncc(CC(C)(C)C)cc32)c1 [compound 869, N-((1S,2R)-3-(((3S,4′S)-6′-(2,2-dimethylpropyl)-3′,4,4′,5-tetrahydrospiro[furan-3,2′-pyrano[2,3-b]pyridin]-4′-yl)amino)-1-(3-ethynylbenzyl)-2-hydroxypropyl)-2-methoxyacetamide] |  | 9.5 µM | 55 µL/min/mg | 21 µL/min/mg |  |  |  |  |  | IC50 [3, 10]: 0.01 µM; IC50 [4, 11]: 0.006 µM
21 | CO[C@H](C)C(=O)N[C@@H](Cc1cccc(F)c1)[C@H](O)CN[C@H]1CC2(CCC2)Oc2c1cc(CC(C)(C)C)nc2-c1ccncc1 [compound 533] |  |  | 163 µL/min/mg | 29 µL/min/mg |  |  |  |  |  | IC50 [3, 12]: 0.044 µM; IC50 (CYP2D6; [13]): 1.4 µM; IC50 [4, 14]: 0.013 µM
22 | C#Cc1cc(C#C)cc(C[C@H](NC(=O)COC)[C@H](O)CN[C@H]2CC3(CCC3)Oc3ncc(CC(C)(C)C)cc32)c1 [compound 858] |  | 1.1 µM | 88 µL/min/mg | 90 µL/min/mg |  |  |  |  |  | IC50 [3, 10]: 0.147 µM; IC50 [4, 11]: 0.005 µM
23 | CC1(C)C[C@H]1c1cnc2c(c1)[C@@H](NC[C@@H](O)[C@H](Cc1cccc(-c3nccs3)c1)NC(=O)[C@H]1CCCO1)CC1(CCC1)O2 [compound 906] | 0.1 µM | 0.4 µM | 63 µL/min/mg | 94 µL/min/mg |  |  |  |  |  | 
24 | CO[C@H](C)C(=O)N[C@@H](Cc1cc(F)cc(F)c1)[C@H](O)CN[C@H]1CC2(CCC2)Oc2c(-c3ccncc3)cc(CC(C)(C)F)cc21 [compound 590] |  |  |  |  | 0.007 µM | 0.6 µM | 0.024 µM | 105 µL/min/mg | 60 µL/min/mg | 
25 | CO[C@H](C)C(=O)N[C@@H](Cc1ccc(F)cc1)[C@H](O)CN[C@H]1CC2(CCC2)Oc2c(-c3ccncc3)cc(CC(C)C)cc21 [compound 606] |  |  |  |  | 0.026 µM | 2 µM | 0.041 µM | 85 µL/min/mg | 51 µL/min/mg | 
